Assay results from US9643967B2, “Pyrrolo[3,2-c]pyridine derivatives as TLR inhibitors” (TAKEDA PHARMACEUTICAL COMPANY LIMITED, priority 2013, dated 2017).
Like-named read-outs stand apart in the source and are kept apart here.

Molecular target: T1, mTLR9 (Mus musculus, UniProt Q9EQU3)
T1 construct: Splenocytes isolated from male C57/BL6 mice; from tissue; host or cells: splenocytes from the spleen of male C57BL/6 mice
T1 sequence (Q9EQU3 26-1032): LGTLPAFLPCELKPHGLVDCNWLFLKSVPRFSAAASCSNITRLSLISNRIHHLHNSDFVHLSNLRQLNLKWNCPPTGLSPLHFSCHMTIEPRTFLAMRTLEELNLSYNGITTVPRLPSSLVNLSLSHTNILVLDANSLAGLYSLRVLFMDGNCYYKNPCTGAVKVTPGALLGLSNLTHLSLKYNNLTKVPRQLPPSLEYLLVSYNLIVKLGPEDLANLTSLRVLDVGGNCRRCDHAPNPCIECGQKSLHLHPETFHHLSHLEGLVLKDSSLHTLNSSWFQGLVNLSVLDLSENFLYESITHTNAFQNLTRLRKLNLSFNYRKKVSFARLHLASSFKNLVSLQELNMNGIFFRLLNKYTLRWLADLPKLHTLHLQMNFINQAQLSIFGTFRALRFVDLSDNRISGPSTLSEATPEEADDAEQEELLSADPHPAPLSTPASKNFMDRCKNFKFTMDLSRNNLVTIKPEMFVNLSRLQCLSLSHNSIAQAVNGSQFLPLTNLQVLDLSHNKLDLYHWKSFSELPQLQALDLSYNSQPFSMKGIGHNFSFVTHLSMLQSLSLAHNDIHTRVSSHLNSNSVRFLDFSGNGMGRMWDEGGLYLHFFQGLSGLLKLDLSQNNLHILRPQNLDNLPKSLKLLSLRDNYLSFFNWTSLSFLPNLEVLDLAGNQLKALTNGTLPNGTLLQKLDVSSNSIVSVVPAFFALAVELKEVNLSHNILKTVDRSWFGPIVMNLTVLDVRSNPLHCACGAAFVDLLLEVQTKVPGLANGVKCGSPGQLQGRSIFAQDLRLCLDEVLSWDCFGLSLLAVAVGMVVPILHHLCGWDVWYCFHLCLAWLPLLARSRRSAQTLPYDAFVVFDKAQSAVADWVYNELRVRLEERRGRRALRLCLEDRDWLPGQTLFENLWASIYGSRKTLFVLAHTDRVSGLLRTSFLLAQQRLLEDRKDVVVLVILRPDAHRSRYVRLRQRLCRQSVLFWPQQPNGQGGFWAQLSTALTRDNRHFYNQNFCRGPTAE
Test: mTLR9 antagonism (IL-6 and TNF-α release assay) in mouse splenocytes, CpG ODN-2006 stimulated
Format: cell-based
Conditions: 1 μM, mouse splenocytes
Outline: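 C57BL6 mouse splenocytes (0.2 million/well) pre-incubated 30 min at 37 °C with compounds (30 μM–1 nM, 0.3% DMSO), then stimulated with 1 μg/ml CpG ODN-2006 overnight at 37 °C/5% CO2. IL-6 and TNF-α in supernatant measured by ELISA; IC50 from % inhibition curves.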

[1] = IL-6 release, read-out: mTLR9 inhibitory activity (% at 1 μM), IL-6
[2] = TNF-α release, read-out: mTLR9 inhibitory activity (% at 1 μM), TNF-α

inhibition at 1 µM [1]	inhibition at 1 µM [2]	Compound
100%	100%	Cc1cc2c(cc(CCN3CCOCC3)n2C)c(-c2ccc(N3CCN(C(C)C)CC3)cc2F)n1 [Example B19, 4-[2-[4-[2-fluoro-4-(4-isopropylpiperazin-1-yl)phenyl]-1,6-dimethyl-pyrrolo[3,2-c]pyridin-2-yl]ethyl]morpholine]
100%	100%	Cc1cc2c(cc(CCN3CCOCC3)n2C)c(-c2cccc(N3CCN(C(C)C)CC3)c2)n1 [Example B21, 4-[2-[4-[3-(4-isopropylpiperazin-1-yl)phenyl]-1,6-dimethyl-pyrrolo[3,2-c]pyridin-2-yl]ethyl]morpholine]
100%	92%	COc1cc(-c2nc(C)cc3c2cc(CCN2CCOCC2)n3C)ccc1N1CCN(C(C)C)CC1 [Example B22, 4-[2-[4-[4-(4-isopropylpiperazin-1-yl)-3-methoxy-phenyl]-1,6-dimethyl-pyrrolo[3,2-c]pyridin-2-yl]ethyl]morpholine]
100%	72%	Cc1cc2c(cc(CCN3CCOCC3)n2C)c(C2CCC(N3CCN(C(C)C)CC3)CC2)n1 (stereo not drawn) [Example B27, 4-[2-[4-[4-(4-isopropylpiperazin-1-yl)cyclohexyl]-1,6-dimethyl-pyrrolo[3,2-c]pyridin-2-yl]ethyl]morpholine]
100%	92%	Cc1cc2c(cc(CCN3CCOCC3)n2C)c(-c2ccc(C3CCN(C(C)C)CC3)cc2)n1 [Example B31, 4-[2-[4-[4-(1-isopropyl-4-piperidyl)phenyl]-1,6-dimethyl-pyrrolo[3,2-c]pyridin-2-yl]ethyl]morpholine]
	100%	CC(C)N1CCN(c2ccc(-c3nccc4[nH]c(CCCN5CCOCC5)cc34)cc2)CC1 [Example C1, 4-[3-[4-[4-(4-isopropylpiperazin-1-yl)phenyl]-1H-pyrrolo[3,2-c]pyridin-2-yl]propyl]morpholine]
	100%	CN1CCN(c2ccc(-c3nccc4[nH]c(CCCN5CCOCC5)cc34)cc2)CC1 [Example C2, 4-[3-[4-[4-(4-methylpiperazin-1-yl)phenyl]-1H-pyrrolo[3,2-c]pyridin-2-yl]propyl]morpholine]
100%	100%	Cc1cc2[nH]c(CCCN3CCOCC3)cc2c(-c2ccc(N3CCN(C(C)C)CC3)cc2)n1 [Example C3, 4-[3-[4-[4-(4-isopropylpiperazin-1-yl)phenyl]-6-methyl-1H-pyrrolo[3,2-c]pyridin-2-yl]propyl]morpholine]
94%	100%	Cc1cc2[nH]c(CCCN3CCCCC3)cc2c(-c2ccc(N3CCN(C(C)C)CC3)cc2)n1 [Example C5, 4-[4-(4-isopropylpiperazin-1-yl)phenyl]-6-methyl-2-[3-(1-piperidyl)propyl]-1H-pyrrolo[3,2-c]pyridine]
100%	100%	Cc1cc2c(cc(CCCN3CCOCC3)n2C)c(-c2ccc(N3CCN(C(C)C)CC3)cc2)n1 [Example C6, 4-[3-[4-[4-(4-isopropylpiperazin-1-yl)phenyl]-1,6-dimethyl-pyrrolo[3,2-c]pyridin-2-yl]propyl]morpholine]
